Assay results taken from ChEMBL document CHEMBL5291721, “A preclinical secondary pharmacology resource illuminates target-adverse drug reaction associations of marketed drugs” (Nat Commun, 2023).

How the values were obtained:
[1] = molecular target: T1, Alpha-1A adrenergic receptor (Homo sapiens, UniProt P35348); type: functional, cell-based
T1 sequence (P35348 whole entry): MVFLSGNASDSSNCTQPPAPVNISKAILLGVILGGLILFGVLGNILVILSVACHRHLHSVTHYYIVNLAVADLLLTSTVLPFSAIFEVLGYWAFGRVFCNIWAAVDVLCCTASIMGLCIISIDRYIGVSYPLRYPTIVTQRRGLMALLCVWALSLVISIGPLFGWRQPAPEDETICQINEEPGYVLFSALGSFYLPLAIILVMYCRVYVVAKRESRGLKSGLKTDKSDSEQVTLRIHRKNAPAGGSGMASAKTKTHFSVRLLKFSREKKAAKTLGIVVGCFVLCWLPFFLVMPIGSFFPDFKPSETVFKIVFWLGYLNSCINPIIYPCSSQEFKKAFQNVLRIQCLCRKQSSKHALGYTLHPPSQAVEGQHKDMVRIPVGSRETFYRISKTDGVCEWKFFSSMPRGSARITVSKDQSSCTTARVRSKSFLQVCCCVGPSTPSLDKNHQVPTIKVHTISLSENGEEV

[2] = molecular target: Voltage-dependent L-type calcium channel subunit alpha-1C (Rattus norvegicus, UniProt P22002); type: functional
Voltage-dependent L-type calcium channel subunit alpha-1C, sequence (P22002 whole entry): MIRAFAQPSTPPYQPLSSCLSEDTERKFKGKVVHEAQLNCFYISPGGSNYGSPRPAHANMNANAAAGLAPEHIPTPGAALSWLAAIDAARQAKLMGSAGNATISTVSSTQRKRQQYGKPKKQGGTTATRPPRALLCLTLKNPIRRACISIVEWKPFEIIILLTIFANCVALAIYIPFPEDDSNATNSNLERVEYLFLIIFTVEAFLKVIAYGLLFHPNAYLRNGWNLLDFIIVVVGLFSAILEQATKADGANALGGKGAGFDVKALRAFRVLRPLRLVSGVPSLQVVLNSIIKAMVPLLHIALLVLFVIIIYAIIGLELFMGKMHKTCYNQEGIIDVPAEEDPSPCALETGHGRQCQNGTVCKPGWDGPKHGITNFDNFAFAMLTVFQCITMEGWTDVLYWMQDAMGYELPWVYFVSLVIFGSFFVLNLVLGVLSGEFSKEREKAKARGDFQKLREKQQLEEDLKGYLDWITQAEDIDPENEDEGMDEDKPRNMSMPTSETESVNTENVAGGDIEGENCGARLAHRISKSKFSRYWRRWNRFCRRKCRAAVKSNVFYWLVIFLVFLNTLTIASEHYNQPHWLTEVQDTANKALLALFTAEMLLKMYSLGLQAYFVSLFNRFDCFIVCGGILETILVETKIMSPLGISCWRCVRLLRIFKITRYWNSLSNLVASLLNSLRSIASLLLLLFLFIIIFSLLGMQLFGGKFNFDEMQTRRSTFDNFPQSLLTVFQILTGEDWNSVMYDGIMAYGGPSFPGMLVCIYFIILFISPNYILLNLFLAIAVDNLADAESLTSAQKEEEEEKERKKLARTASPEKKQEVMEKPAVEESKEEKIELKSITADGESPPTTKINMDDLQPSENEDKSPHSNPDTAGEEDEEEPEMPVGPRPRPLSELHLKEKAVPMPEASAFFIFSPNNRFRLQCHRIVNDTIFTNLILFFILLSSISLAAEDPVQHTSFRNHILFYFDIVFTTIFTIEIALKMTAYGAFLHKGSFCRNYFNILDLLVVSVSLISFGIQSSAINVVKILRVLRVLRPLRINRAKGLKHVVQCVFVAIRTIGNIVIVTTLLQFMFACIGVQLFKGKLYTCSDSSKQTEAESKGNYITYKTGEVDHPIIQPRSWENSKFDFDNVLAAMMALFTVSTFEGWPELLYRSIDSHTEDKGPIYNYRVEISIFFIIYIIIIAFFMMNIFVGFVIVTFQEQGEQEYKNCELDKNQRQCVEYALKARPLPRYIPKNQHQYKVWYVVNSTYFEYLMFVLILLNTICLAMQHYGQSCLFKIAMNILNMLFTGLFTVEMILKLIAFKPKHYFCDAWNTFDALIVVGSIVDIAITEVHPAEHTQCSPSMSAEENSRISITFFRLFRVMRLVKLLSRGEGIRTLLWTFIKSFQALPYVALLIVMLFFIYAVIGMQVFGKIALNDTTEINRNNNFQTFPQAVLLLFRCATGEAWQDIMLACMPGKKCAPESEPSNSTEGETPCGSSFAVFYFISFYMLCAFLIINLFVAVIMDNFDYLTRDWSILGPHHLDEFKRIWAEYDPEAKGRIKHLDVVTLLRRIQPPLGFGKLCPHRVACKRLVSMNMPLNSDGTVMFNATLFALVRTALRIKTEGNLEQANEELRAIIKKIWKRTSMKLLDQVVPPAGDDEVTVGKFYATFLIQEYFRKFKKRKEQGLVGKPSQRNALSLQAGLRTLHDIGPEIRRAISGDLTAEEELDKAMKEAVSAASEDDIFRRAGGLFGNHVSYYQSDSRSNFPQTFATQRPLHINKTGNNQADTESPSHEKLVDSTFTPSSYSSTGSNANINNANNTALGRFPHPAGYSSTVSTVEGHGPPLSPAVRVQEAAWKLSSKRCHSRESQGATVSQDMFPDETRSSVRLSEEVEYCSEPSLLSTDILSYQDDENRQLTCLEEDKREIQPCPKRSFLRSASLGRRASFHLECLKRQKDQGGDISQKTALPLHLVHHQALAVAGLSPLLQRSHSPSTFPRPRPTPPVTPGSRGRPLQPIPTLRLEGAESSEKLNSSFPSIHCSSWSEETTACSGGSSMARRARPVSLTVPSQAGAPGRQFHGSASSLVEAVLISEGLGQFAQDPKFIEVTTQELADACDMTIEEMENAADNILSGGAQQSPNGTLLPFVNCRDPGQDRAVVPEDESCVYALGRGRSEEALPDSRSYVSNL

[3] = molecular target: T2, Muscarinic acetylcholine receptor M2 (Homo sapiens, UniProt P08172); type: functional, cell-based
T2 sequence (P08172 whole entry): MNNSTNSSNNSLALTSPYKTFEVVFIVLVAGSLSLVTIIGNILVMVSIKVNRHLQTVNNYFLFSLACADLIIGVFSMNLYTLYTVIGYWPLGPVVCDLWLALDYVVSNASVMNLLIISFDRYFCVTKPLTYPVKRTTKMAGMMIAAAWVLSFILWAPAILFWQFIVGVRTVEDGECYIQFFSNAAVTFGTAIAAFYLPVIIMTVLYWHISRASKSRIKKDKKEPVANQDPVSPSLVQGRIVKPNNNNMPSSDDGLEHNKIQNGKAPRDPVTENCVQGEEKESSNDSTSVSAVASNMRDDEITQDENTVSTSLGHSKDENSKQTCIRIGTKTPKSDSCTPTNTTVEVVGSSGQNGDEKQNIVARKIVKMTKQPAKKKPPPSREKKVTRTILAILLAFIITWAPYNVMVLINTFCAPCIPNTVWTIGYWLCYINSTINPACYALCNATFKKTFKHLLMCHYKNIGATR

[4] = molecular target: Voltage-gated inwardly rectifying potassium channel KCNH2 (Homo sapiens, UniProt Q12809); type: functional
Voltage-gated inwardly rectifying potassium channel KCNH2, sequence (Q12809 whole entry): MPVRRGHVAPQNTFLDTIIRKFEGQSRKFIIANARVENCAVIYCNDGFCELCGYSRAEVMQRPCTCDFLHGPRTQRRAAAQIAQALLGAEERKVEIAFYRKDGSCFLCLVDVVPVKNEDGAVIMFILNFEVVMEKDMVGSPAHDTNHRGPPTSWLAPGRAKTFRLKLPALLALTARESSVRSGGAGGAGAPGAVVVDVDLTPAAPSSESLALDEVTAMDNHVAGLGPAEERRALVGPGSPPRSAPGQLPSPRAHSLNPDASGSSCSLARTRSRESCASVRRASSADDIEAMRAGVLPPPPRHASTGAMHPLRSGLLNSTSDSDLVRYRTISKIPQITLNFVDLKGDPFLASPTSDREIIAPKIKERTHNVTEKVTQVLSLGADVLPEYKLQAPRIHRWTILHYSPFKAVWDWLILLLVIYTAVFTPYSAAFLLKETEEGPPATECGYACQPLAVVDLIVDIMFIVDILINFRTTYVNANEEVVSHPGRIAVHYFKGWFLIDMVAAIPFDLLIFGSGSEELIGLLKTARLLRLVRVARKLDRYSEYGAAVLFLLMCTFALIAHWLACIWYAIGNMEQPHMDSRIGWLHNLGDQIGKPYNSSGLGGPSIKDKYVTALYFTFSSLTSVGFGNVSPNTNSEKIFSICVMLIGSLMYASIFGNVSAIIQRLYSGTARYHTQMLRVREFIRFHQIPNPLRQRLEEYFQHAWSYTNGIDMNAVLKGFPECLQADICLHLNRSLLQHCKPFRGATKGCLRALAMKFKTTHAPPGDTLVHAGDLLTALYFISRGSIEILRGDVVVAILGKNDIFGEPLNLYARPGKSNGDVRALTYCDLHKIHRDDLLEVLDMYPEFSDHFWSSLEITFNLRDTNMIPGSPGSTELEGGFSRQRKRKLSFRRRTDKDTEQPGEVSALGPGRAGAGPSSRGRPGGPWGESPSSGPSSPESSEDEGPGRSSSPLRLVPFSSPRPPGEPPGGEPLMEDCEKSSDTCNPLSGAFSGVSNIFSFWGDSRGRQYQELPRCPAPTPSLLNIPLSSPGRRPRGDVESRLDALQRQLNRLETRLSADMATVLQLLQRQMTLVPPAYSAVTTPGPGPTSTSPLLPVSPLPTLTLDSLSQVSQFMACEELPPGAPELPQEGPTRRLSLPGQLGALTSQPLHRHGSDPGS

[5] = molecular target: Kappa-type opioid receptor (Homo sapiens, UniProt P41145)
Kappa-type opioid receptor, sequence (P41145 whole entry): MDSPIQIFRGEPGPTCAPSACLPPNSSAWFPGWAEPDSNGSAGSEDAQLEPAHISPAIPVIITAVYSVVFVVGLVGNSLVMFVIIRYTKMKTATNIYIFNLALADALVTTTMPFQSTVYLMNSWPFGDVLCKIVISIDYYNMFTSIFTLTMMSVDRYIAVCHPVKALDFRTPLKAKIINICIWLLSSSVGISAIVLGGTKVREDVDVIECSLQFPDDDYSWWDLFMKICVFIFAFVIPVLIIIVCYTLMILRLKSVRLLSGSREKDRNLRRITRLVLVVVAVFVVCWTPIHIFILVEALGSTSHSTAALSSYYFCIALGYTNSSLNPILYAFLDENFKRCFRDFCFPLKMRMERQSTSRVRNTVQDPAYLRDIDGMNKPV

[6] = molecular target: T3, Prostaglandin G/H synthase 1 (Rattus norvegicus, UniProt Q63921); type: functional
T3 sequence (Q63921 whole entry): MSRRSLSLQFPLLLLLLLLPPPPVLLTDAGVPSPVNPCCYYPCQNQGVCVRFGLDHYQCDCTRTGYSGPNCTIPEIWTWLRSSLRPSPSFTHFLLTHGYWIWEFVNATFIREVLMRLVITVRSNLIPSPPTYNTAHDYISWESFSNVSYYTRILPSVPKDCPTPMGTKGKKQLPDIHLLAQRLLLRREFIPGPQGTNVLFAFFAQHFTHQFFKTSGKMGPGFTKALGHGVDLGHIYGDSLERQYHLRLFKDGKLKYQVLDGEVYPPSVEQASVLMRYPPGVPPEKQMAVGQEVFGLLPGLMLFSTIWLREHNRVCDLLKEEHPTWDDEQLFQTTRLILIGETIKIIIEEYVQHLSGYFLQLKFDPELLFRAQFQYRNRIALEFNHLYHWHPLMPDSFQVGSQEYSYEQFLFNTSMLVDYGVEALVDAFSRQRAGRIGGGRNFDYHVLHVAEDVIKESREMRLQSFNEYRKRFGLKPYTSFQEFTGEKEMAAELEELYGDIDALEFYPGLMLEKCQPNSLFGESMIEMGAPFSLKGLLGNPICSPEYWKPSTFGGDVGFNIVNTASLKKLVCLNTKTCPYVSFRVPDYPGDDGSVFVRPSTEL

[7] = molecular target: T4, Equilibrative nucleoside transporter 1 (Homo sapiens, UniProt Q99808)
T4 sequence (Q99808 whole entry): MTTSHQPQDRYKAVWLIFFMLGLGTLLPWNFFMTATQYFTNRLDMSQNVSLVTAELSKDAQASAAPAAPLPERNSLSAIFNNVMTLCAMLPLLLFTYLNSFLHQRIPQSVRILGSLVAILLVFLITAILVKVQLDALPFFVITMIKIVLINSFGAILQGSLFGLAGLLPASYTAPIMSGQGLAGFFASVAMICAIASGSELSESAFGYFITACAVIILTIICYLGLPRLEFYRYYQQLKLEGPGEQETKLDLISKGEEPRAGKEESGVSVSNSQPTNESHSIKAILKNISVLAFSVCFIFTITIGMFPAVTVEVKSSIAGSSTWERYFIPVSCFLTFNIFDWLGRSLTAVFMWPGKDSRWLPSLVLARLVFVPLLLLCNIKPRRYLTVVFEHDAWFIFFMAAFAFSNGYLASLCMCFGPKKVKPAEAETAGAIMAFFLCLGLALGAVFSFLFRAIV

Thromboxane A2 receptor = molecular target: T5, Thromboxane A2 receptor (Homo sapiens, UniProt P21731)
T5 sequence (P21731 whole entry): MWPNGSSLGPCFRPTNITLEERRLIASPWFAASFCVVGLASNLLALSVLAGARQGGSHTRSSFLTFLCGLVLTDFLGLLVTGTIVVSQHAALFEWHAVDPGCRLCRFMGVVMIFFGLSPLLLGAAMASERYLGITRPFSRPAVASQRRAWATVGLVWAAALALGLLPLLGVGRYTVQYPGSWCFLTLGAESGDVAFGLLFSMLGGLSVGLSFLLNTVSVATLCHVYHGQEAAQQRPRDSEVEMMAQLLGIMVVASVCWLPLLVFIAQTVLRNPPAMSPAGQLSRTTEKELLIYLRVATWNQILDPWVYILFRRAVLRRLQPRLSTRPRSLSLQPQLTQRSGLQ
Also: assay procedure not described here.

| SMILES | AC50 [1] [µM] | AC50 [2] [µM] | AC50 [3] [µM] | AC50 [4] [µM] | AC50 [5] [µM] | AC50 [6] [µM] | AC50 [7] [µM] | AC50 (Thromboxane A2 receptor) [µM] |
| --- | --- | --- | --- | --- | --- | --- | --- | --- |
| CCCN1CCCC[C@H]1C(=O)Nc1c(C)cccc1C [ROPIVACAINE] | > 30 | > 30 | > 30 | > 30 | > 30 | > 30 | > 30 | > 30 |
| Oc1cc(O)c(Cl)cn1 | > 30 | > 30 | > 30 | > 30 | > 30 | > 30 | > 30 | > 30 |
| CC/C=C\C/C=C\C/C=C\C/C=C\C/C=C\CCCC(=O)OCC [ICOSAPENT ETHYL] | > 30 | > 30 | > 30 | > 30 | > 30 | 2.4 | > 30 | > 30 |
| CCCCOc1ccc(C(=O)CCN2CCCCC2)cc1 [DYCLONINE] | > 30 | > 10 | > 10 | 3.3 | > 10 | > 30 | > 30 | > 30 |
| CC(=O)c1ccc(S(=O)(=O)NC(=O)NC2CCCCC2)cc1 [ACETOHEXAMIDE] | > 30 | > 10 | > 10 | > 30 | > 10 | > 10 | > 10 | > 10 |
| OC[C@H]1O[C@@H](Oc2cc(O)cc(/C=C/c3ccc(O)cc3)c2)[C@H](O)[C@@H](O)[C@@H]1O [PICEID] | > 30 | > 30 | > 30 | > 30 | > 30 | 4.4 | > 30 | > 30 |
| COc1ccc2cc(CCC(C)=O)ccc2c1 [NABUMETONE] | > 30 | > 10 | > 10 | > 30 | > 10 | > 10 | > 30 | > 10 |
| CC(CN(C)C)C(C)(O)Cc1ccc(Cl)cc1 (configuration not stated) [CLOBUTINOL] | > 30 | > 10 | > 10 | 8.45 | > 10 | > 30 | > 30 | > 30 |
| COc1cc(C)c(/C=C/C(C)=C/C=C/C(C)=C/C(=O)O)c(C)c1C [ACITRETIN] | > 30 | > 10 | > 10 | > 30 | > 10 | 0.517 | > 10 | > 10 |
| CCC(NC(C)C)C(O)c1ccc(O)c2[nH]c(=O)ccc12 (configuration not stated) [PROCATEROL] | > 30 | > 30 | > 30 | > 30 | > 30 | > 30 | > 30 | > 30 |
| Cn1c(=O)c2c(ncn2CCOC(=O)C(C)(C)Oc2ccc(Cl)cc2)n(C)c1=O [THEOFIBRATE] | > 30 | > 30 | > 30 | > 30 | > 30 | > 30 | > 30 | > 30 |
| C=CC[N+]1([C@H]2C[C@H]3[C@@H]4CC[C@H]5C[C@H](O)[C@@H](N6CCOCC6)C[C@]5(C)[C@H]4CC[C@]3(C)[C@H]2OC(C)=O)CCCC1 [ROCURONIUM] | > 30 | > 30 | > 30 | 1.06 | > 30 | > 30 | > 30 | > 30 |
| CCN1CC(CCN2CCOCC2)C(c2ccccc2)(c2ccccc2)C1=O (configuration not stated) [DOXAPRAM] | > 30 | > 30 | > 30 | 10.5 | > 30 | > 30 | > 30 | > 30 |
| CC(C)N(CCCCOCC(=O)O)c1cnc(-c2ccccc2)c(-c2ccccc2)n1 | > 30 | > 30 | > 30 | > 30 | > 30 | > 30 | > 30 | 28 |
| CCOC(=O)C(C)(C)Oc1ccc(Cl)cc1 [CLOFIBRATE] | > 30 | > 10 | > 10 | > 30 | > 10 | > 30 | > 30 | > 30 |
| C=CCN1CCc2nc(N)sc2CC1 [TALIPEXOLE] | 2.5 | > 30 | > 30 | > 30 | 17 | > 30 | > 30 | > 30 |
| O=C(CCCN1CCC(O)(c2ccc(Br)cc2)CC1)c1ccc(F)cc1 [BROMPERIDOL] | > 30 | > 30 | > 30 | 0.23 | 10 | > 30 | > 30 | > 30 |
| CC(=O)[C@H]1CC[C@H]2[C@@H]3C[C@H](C)C4=CC(=O)CC[C@]4(C)[C@H]3[C@@H](O)C[C@]12C [MEDRYSONE] | > 30 | > 10 | > 10 | > 30 | > 10 | > 10 | > 10 | > 10 |
| O=C1Nc2ccc(Cl)cc2C(c2ccccc2Cl)=NC1O (configuration not stated) [LORAZEPAM] | > 30 | > 10 | > 10 | > 30 | > 10 | > 30 | > 30 | > 30 |
